According to PubChem BioAssay (NCI):
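Assay format: 96-well plates, 48-hour exposure. GI50 is the concentration that inhibits growth by half. TGI: concentration producing complete growth inhibition.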

Key:
Test in all cases: NCI anticancer screen, dose series, 48 h
MCF7 breast = test system: MCF7 breast
HOP-92 NSCLC = test system: HOP-92 NSCLC
SF-539 CNS = test system: SF-539 CNS
M14 melanoma = test system: M14 melanoma
T-47D breast = test system: T-47D breast
CCRF-CEM leukemia = test system: CCRF-CEM leukemia
UACC-62 melanoma = test system: UACC-62 melanoma
OVCAR-5 ovarian = test system: OVCAR-5 ovarian
RPMI-8226 leukemia = test system: RPMI-8226 leukemia
UACC-257 melanoma = test system: UACC-257 melanoma

Row | SMILES | GI50 (MCF7 breast) [µM] | TGI (MCF7 breast) [µM] | GI50 (HOP-92 NSCLC) [µM] | TGI (HOP-92 NSCLC) [µM] | GI50 (SF-539 CNS) [µM] | TGI (SF-539 CNS) [µM] | GI50 (M14 melanoma) [µM] | TGI (M14 melanoma) [µM] | GI50 (T-47D breast) [µM] | TGI (T-47D breast) [µM] | GI50 (CCRF-CEM leukemia) [µM] | TGI (CCRF-CEM leukemia) [µM] | GI50 (UACC-62 melanoma) [µM] | TGI (UACC-62 melanoma) [µM] | GI50 (OVCAR-5 ovarian) [µM] | TGI (OVCAR-5 ovarian) [µM] | GI50 (RPMI-8226 leukemia) [µM] | TGI (RPMI-8226 leukemia) [µM] | GI50 (UACC-257 melanoma) [µM] | TGI (UACC-257 melanoma) [µM]
1 | O=C(Nc1n[nH]c2cc(-c3cc(F)ccc3F)ccc12)C1CC1 | 7.43 | > 19.8 | > 25 | > 25 | 13.5 | > 25 | 13.8 | > 25 | 11.8 | > 25 | 10.5 | > 25 | 19.5 | > 25 | > 22.3 | > 25 | 13.1 | > 25 | > 25 | > 25
2 | CC(C)(C)C[C@H]1N[C@@H](C(=O)NC2CCC(O)CC2)[C@H](c2cccc(Cl)c2F)[C@@]12C(=O)Nc1cc(Cl)ccc12 (some centres undefined) | 0.228 | 2.98 | 3.28 | 15 | 3.12 | 11.5 | 4.05 | 17.3 | 5.98 | 22.8 | 3.51 | 15.4 | 0.235 | 2.46 | 3.88 | 15.2 | 2.63 | 8.41 | 1.16 | 13.7
3 | C=C1C(=O)O[C@@H]2/C=C(/C)[C@@H](OC(C)=O)C/C=C(\C)C(O)[C@@H](OC(=O)/C(C)=C\C)C12 (some centres undefined) | – | > 100 | – | 50.3 | – | > 100 | – | > 100 | – | 39.7 | – | 57.2 | – | 88.4 | – | > 100 | – | 60.7 | – | > 100
4 | Cc1cccc(C2NC(=O)c3ccccc3N2)c1 (centres undefined) | – | > 100 | – | > 100 | – | 9.07 | – | > 54.8 | – | > 100 | – | > 100 | – | > 100 | – | > 100 | – | > 27 | – | > 100
5 | O=c1c(-c2ccc3c(c2)OCO3)coc2c3c(ccc12)OCO3 | – | 33.7 | – | 38.5 | – | 58.7 | – | > 100 | – | > 100 | – | > 100 | – | > 100 | – | > 100 | – | > 100 | – | > 100
6 | Cn1c(I)c(C#C[Si](C)(C)C)c(=O)n(C(=O)c2ccccc2)c1=O | 1.92 | 5.65 | 2.6 | 13.6 | 5.3 | 12.1 | 1.99 | 4.16 | 2.03 | 5.91 | 0.432 | – | 4.51 | 17 | 14.3 | 28.5 | 2.02 | > 20.4 | 11.6 | 24.6
7 | Cc1ccc(/C(=N/Nc2ccc([N+](=O)[O-])cc2)Sc2cc(Cl)c(C)cc2S(N)(=O)=O)cc1 | 2.6 | > 21.5 | 1.45 | 3.77 | 1.1 | 2.97 | 1.78 | 3.85 | 3.14 | > 23.2 | 2.11 | 4.58 | 1.73 | 3.64 | 2.45 | 6.16 | 1.82 | 4.27 | 6.45 | 18.8
